Results taken from US7368453B2, “Quinazolinone compounds with reduced bioaccumulation” (Chiron Corporation, priority 2003, dated 2008).
Like-named read-outs stand apart in the source and are kept apart here.

Assay: Tissue half-life (t1/2) and Cmax in plasma, brain, kidney and liver after oral administration to CD-1 mice
Assay type: in vivo, mouse
Conditions: male, mouse
Experimental: In vivo studies were conducted to observe the effect of the compounds of the invention in the subject animal. Male CD-1 mice, body weight of 20 grams at arrival, were used in these studies. Mice were given 30 mg/kg of compound in HPMC/Tween solution or suspension via oral gavage. Plasma, brain, and liver samples were collected at time periods of 1, 2, 4, 8, and 24 hours post dosing. One mouse was used per time point. Thus, a total of 5 mice were used for each compound tested. For sample collection, mice were euthanized with CO2. Blood samples were taken by cardiac puncture and kept on ice. Brain and liver samples were collected immediately after bleeding and the samples were kept on dry ice. For calculation of tissue half-lives (t1/2s), the terminal rate constant k was estimated by the absolute value of the slope of a log-linear regression of the terminal phase of the tissue concentration-time profile. The tissue half-life t1/2 is ln(2)/k.
The following table includes t1/2 data for plasma, brain, kidney, and liver obtained after oral administration.
Tissue Half-Life Data for Various Quinazolinone Compounds (PO)

[1] = brain t1/2, 30 mg/kg oral gavage (PO), read-out: Half-Lives (h) Brain (converted)
[2] = liver t1/2, 30 mg/kg oral gavage (PO), read-out: Half-Lives (h) Liver (converted)
[3] = plasma t1/2, 30 mg/kg oral gavage (PO), read-out: Half-Lives (h) Plasma (converted)

half-life [1] [h] | half-life [2] [h] | half-life [3] [h] | SMILES
6.9 | 2.9 | 2.9 | COc1ccc(CCn2c(N3CCOCC3)nc3cc(NC(=N[C@H]4C[C@H]5C[C@@H]([C@@H]4C)C5(C)C)N4CC(=O)N[C@@H](C)C4)ccc3c2=O)c(F)c1 [Example 221, (3S)-N-{3-[2-(2-fluoro-4-methoxyphenyl)ethyl]-2-morpholin-4-yl-4-oxo-3,4-dihydroquinazolin-7-yl}-3-methyl-5-oxo-N′-[(1S,2S,3S,5R)-2,6,6-trimethylbicyclo[3.1.1]hept-3-yl]piperazine-1-carboximidamide]
8 | 2.7 | 1.1 | C[C@@H]1[C@@H](N=C(Nc2ccc3c(=O)n(CCc4ccc(Cl)cc4)c(-c4cnccn4)nc3c2)N2CC(=O)N[C@@H](C)C2)C[C@H]2C[C@@H]1C2(C)C [Example 222, (3S)-N-{3-[2-(4-chlorophenyl)ethyl]-4-oxo-2-pyrazin-2-yl-3,4-dihydroquinazolin-7-yl}-3-methyl-5-oxo-N′-[(1S,2S,3S,5R)-2,6,6-trimethylbicyclo[3.1.1]hept-3-yl]piperazine-1-carboximidamide]
